What is called IC50 is the midpoint of a concentration-inhibition curve. Low readings indicate higher potency, high ones lower potency.

For this assay, the target named is T1, Human HPK1, catalytic domain (Homo sapiens, UniProt Q92918).
T1 construct: purchased Carna
T1 sequence (Q92918 1-346): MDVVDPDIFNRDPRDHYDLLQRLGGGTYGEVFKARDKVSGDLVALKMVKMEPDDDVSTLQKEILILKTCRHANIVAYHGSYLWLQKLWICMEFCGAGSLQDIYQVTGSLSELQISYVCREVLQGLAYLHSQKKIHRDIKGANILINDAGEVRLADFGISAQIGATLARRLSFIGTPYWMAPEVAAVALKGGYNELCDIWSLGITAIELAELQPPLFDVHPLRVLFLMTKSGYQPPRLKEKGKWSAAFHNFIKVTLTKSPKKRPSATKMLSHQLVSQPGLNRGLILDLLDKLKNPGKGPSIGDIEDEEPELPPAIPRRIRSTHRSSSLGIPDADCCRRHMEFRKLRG
The experiment in a line: HPK1-SLP76 TR-FRET assay. Type of assay: biochemical. To be noted: 75 pM HPK1, 10 uM ATP, 10 nM SLP76, 30 min compound pre-incubation. On the technique in general: TR-FRET usually uses a lanthanide donor and a delayed reading to cut background.
On to `Cn1cc([C@@H]2C[C@H]2C(=O)Nc2ncc(C(N)=O)c(Nc3ccccc3Br)n2)cn1` (racemic) [Example 22-1, 4-((2-bromophenyl)amino)-2-((trans)-2-(1-methyl-1H-pyrazol-4-yl)cyclopropane-1-carboxamido)pyrimidine-5-carboxamide], for which 370 nM corresponded to half-maximal inhibition (IC50).

With `COc1cc2c(cc1Nc1ncc(C(N)=O)c(Nc3c(F)cccc3C(C)OC)n1)CN(C)CC2` (racemic) [Example 23-1, (RAC)-4-((2-fluoro-6-(1-methoxyethyl)phenyl)amino)-2-((6-methoxy-2-methyl-1,2,3,4-tetrahydroisoquinolin-7-yl)amino)pyrimidine-5-carboxamide], the IC50 was 0.22 nM.

`COc1cc2c(cc1Nc1ncc(C(N)=O)c(Nc3c(F)cccc3C(C)O)n1)CN(C)CC2` (racemic) [Example 23-2, (RAC)-4-((2-fluoro-6-(1-hydroxyethyl)phenyl)amino)-2-((6-methoxy-2-methyl-1,2,3,4-tetrahydroisoquinolin-7-yl)amino)pyrimidine-5-carboxamide]: inhibition was half-maximal at 0.82 nM (IC50).

In turn, `COc1cc2c(cc1Nc1ncc(C(N)=O)c(Nc3ccccc3C(F)(F)F)n1)CN(C)C(C)C2` (racemic) [Example 23-3, (RAC)-2-((6-methoxy-2,3-dimethyl-1,2,3,4-tetrahydroisoquinolin-7-yl)amino)-4-((2-(trifluoromethyl)phenyl)amino)pyrimidine-5-carboxamide] came in with an IC50 of 0.28 nM.

Turning to `COc1cc2c(cc1Nc1ncc(C(N)=O)c(Nc3ccccc3Br)n1)CN(C1CC(CO)C1)CC2` (single isomer, unassigned) [Example 9-3, 4-((2-bromophenyl)amino)-2-((2-(3-(hydroxymethyl)cyclobutyl)-6-methoxy-1,2,3,4-tetrahydroisoquinolin-7-yl)amino)pyrimidine-5-carboxamide], the concentration for half-maximal inhibition (IC50) turned out to be 0.33 nM.

Turning to `COc1cc2c(cc1Nc1ncc(C(N)=O)c(Nc3ccccc3Br)n1)CN(C1CC(CO)C1)CC2` (single isomer, unassigned) [Example 9-4, 4-((2-bromophenyl)amino)-2-((2-(3-(hydroxymethyl)cyclobutyl)-6-methoxy-1,2,3,4-tetrahydroisoquinolin-7-yl)amino)pyrimidine-5-carboxamide], the 50% inhibitory concentration (IC50) amounted to 0.18 nM.

`COc1cc2c(cc1Nc1ncc(C(N)=O)c(Nc3ccccc3C(F)(F)F)n1)C(C1CC1)N(C)CC2` (single isomer, unassigned) [Example 20-1, 2-((1-cyclopropyl-6-methoxy-2-methyl-1,2,3,4-tetrahydroisoquinolin-7-yl)amino)-4-((2-(trifluoromethyl)phenyl)amino)pyrimidine-5-carboxamide] had an IC50 of 1.62 nM.

`COc1cc2c(cc1Nc1ncc(C(N)=O)c(Nc3ccccc3C(F)(F)F)n1)C(C1CC1)N(C)CC2` (single isomer, unassigned) [Example 20-2, 2-((1-cyclopropyl-6-methoxy-2-methyl-1,2,3,4-tetrahydroisoquinolin-7-yl)amino)-4-((2-(trifluoromethyl)phenyl)amino)pyrimidine-5-carboxamide] returned an IC50 of 0.12 nM.

`COc1cc2c(cc1Nc1ncc(C(N)=O)c(Nc3cccc(CO)c3)n1)CN(C)CC2` [Example 1-1, 4-((3-(Hydroxymethyl)phenyl)amino)-2-((6-methoxy-2-methyl-1,2,3,4-tetrahydroisoquinolin-7-yl)amino)pyrimidine-5-carboxamide] came in with an IC50 of 0.35 nM.

The compound `COc1cc2c(cc1Nc1ncc(C(N)=O)c(Nc3cccc(CNC(=O)OC(C)(C)C)c3)n1)CN(C)CC2` [Example 2-1, tert-butyl {[3-({5-carbamoyl-2-[(6-methoxy-2-methyl-1,2,3,4-tetrahydroisoquinolin-7-yl)amino]pyrimidin-4-yl}amino)phenylmethyl} carbamate] registered an IC50 of 1.59 nM.

`COc1cc2c(cc1Nc1ncc(C(N)=O)c(Nc3cccc(CN)c3)n1)CN(C)CC2` [Example 2-2, 4-{[3-(aminomethyl)phenyl]-amino}-2-[(6-methoxy-2-methyl-1,2,3,4-tetrahydroisoquinolin-7-yl)amino]pyrimidine-5-carboxamide]: the IC50 turned out to be 0.34 nM.

Compound `COc1cc2c(cc1Nc1ncc(C(N)=O)c(Nc3ccccc3CN)n1)CN(C)CC2` [Example 2-3, 4-{[2-(aminomethyl)phenyl]-amino}-2-[(6-methoxy-2-methy1-1,2,3,4-tetrahydroisoquinolin-7-yl)amino]pyrimidine-5-carboxamide] came in with an IC50 of 1.64 nM.

Take `CNCc1ccccc1Nc1nc(Nc2cc3c(cc2OC)CCN(C)C3)ncc1C(N)=O` [Example 2-4, 2-[(6-methoxy-2-methyl-1,2,3,4-tetrahydroisoquinolin~7-yl)amino]-4-({2-[(methylamino)methyl]-phenyl}amino)pyrimidine-5-carboxamide]: the IC50 stood at 0.63 nM.

`COc1cc2c(cc1Nc1ncc(C(N)=O)c(Nc3cccc(C(C)N)c3)n1)CN(C)CC2` (stereo not shown) [Example 2-5, 4-{[3-(1-aminoethyl)phenyl]-amino}-2-[(6-methoxy-2-methyl-1,2,3,4-tetrahydroisoquinolin-7-yl)amino]pyrimidine-5-carboxamide] registered an IC50 of 0.25 nM.

The compound `CC(N)c1cccc(Nc2nc(Nc3cc4c(cc3Cl)CCN(C)C4)ncc2C(N)=O)c1` (stereo not shown) [Example 2-6, 4-{[3-(1-aminoethyl)phenyl]-amino}-2-[(6-chloro-2-methyl-1,2,3,4-tetrahydroisoquinolin-7-yl)amino]pyrimidine-5-carboxamide] registered a half-inhibitory concentration (IC50) of 0.54 nM.

Consider `CC(N)c1cccc(Nc2nc(Nc3cc4c(cc3F)CCN(C)C4)ncc2C(N)=O)c1` (stereo not shown) [Example 2-7, 4-{[3-(1-aminoethyl)phenyl]-amino}-2-[(6-fluoro-2-methyl-1,2,3,4-tetrahydroisoquinolin-7-yl)amino]pyrimidine-5-carboxamide], for which half-maximal inhibition (IC50) required 0.24 nM.

`COc1cc2c(cc1Nc1ncc(C(N)=O)c(Nc3cccc(CNC(=O)C4(F)CC4)c3)n1)CN(C)CC2` [Example 3-1, 4~[(3~{[(1-fluorocyclo-propane-1-carbonyl)amino]-methyl}phenyl)amino]-2-[(6-methoxy-2-methyl-1,2,3,4-tetrahydroiso-quinolin-7-yl)amino]-pyrimidine-5-carboxamide] registered an IC50 of 0.56 nM.

In the case of `COc1cc2c(cc1Nc1ncc(C(N)=O)c(Nc3c(F)cccc3Br)n1)CN(C)CC2` [Example 4-4, 4-[(2-bromo-6-fluorophenyl)amino]-2-[(6-methoxy-2-methyl-1,2,3,4-tetrahydroisoquinolin-7-yl)amino]pyrimidine-5-carboxamide], it took 0.12 nM to reach half-maximal inhibition (IC50).

Consider `Cc1cccc(F)c1Nc1nc(Nc2cc3c(cc2Cl)CCN(C)C3)ncc1C(N)=O` [Example 4-5, 2-[(6-chloro-2-methyl-1,2,3,4-tetrahydroisoquinolin-7-yl)amino]-4-[(2-fluoro-6-methylphenyl)amino] pyrimidine-5-carboxamide], for which 0.61 nM corresponded to half-maximal inhibition (IC50).

For the compound `Cc1cccc(F)c1Nc1nc(Nc2cc3c(cc2F)CCN(C)C3)ncc1C(N)=O` [Example 4-6], the IC50 turned out to be 0.11 nM.

For `COc1cc2c(cc1Nc1ncc(C(N)=O)c(Nc3c(F)cccc3C#N)n1)CN(C)CC2` [Example 4-9], the IC50 was 5.65 nM.

In the case of `COc1cc2c(cc1Nc1ncc(C(N)=O)c(Nc3ccc(F)cc3F)n1)CN(C)CC2` [Example 4-10, 4-[(2,4-difluorophenyl)amino]-2-[(6-methoxy-2-methyl-1,2,3,4-tetrahydroisoquinolin-7-yl)amino]pyrimidine-5-carboxamide], the IC50 is 1.34 nM.

The record behind these values is patent US20230416225A1, “DIAMINOPYRIMIDINE CARBOXAMIDE INHIBITORS OF HPK1” (MERCK SHARP & DOHME LLC, priority 2020, published 2023).
